We go through two compounds from patent publication US20180319865A1, “Identification of Novel Small Molecule Beta2 Integrin Agonists” (Rush University Medical Center, priority 2016, published 2018).

Common to all, as to assay type: cell-based
For experiment [1], the target named is T1, mutant integrin CD11bE320A/CD18 (Homo sapiens, UniProt P11215, E336A).
T1 construct: expressed in transfected cells; host or cells: K562 (ATCC)
The experiment can be described thus: HTS cell adhesion assay, K562 E320A cells on immobilized fibrinogen. The conditions noted are these: five point dose-response. A digest of the protocol:
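K562 cells expressing the indicated CD11b/CD18 integrin were added to wells coated with 15 μg/mL fibrinogen and incubated with compound for 30 min at 37 °C in Ca2+/Mg2+ buffer. Non-adherent cells were removed by plate inversion. Adherent cells were fixed, stained with DAPI and counted by high-content imaging, scaled from 0% (1 mM Ca2+/Mg2+) to 100% (Mn2+ activation).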

In experiment [2] the target is T2, wild-type integrin CD11b/CD18 (Homo sapiens, UniProt P11215).
T2 construct: expressed in transfected cells; host or cells: K562 (ATCC)
Nature of the experiment: HTS cell adhesion assay, K562 CD11b/CD18 cells on immobilized fibrinogen. As to the method:
K562 cells stably expressing CD11c/CD18 (K562 CD11c/CD18) were generated similarly. […] K562 cells stably transfected with mutant integrin CD11bE320A/CD18 (K562 E320A) were generated according to literature protocols. All cell lines were maintained in Iscove's Modified Dulbecco's Medium (IMDM) supplemented with 10% heat-inactivated fetal bovine serum, 50 IU/mL penicillin and streptomycin and 0.5 mg/mL G418.
(§1) Cell adhesion assays with immobilized ligands were performed using the general protocol previously described and as illustrated in FIG. 1 [33]. Assays with all different K562 cell lines (K562, K562 CD11b/CD18, K562 CD11c/CD18 and K562 E320A) were performed in an identical fashion. Briefly, 384-well microplates (Corning 3700) were coated with 15 μg/mL fibrinogen (Fg) ligand in PBS^++ overnight at 4° C. At the same time, anti-CD18 (IB4) mAb was also coated. Subsequently, the coated wells were washed with 1% nonfat milk in TBS at room temperature for 1 hour. Next, the wells were washed 3 times with TBS, and the coated microplates were used in the HTS assays.
(§2) K562 CD11b/CD18, K562 CD11bE320A/CD18 and K562 CD11c/CD18 cells were washed with TBS, and cells were transferred to the Fg-coated wells of microplates in the assay buffer (Ca^2+ and Mg^2+ for physiological condition, Mn^2+ as the Positive control). A 1 μL aliquot of the compounds were transferred to each washed well with multichannel pipet from the 384-well plates.
(§3) The assay plates were incubated at 37° C. in the presence of small-molecule compounds for 30 min. To dislodge the non-adherent cell, the assay plates were gently inverted and kept in inverted position for 20 min at room temperature.
(§4) The cells were fixed with 37% formaldehyde in a small volume and the plates were kept inverted for 1 h. Upon the fixation, the solutions in the well were discarded. Next, the cells were fluorescently labeled with DAPI (0.5 μM final in TBS with 0.1% Triton X-100) and the quantitated with “Opera High Content Screening System” (Perkin Elmer).
Cell-adhesion under positive and negative control conditions was used to define the activity scale; signal corresponding to the number of non-small molecule treated cells adherent in activating buffer condition (in the presence of Mn^2+ ions as agonist, PC) was considered maximum (100% binding) and the signal corresponding to the number of non-small molecule treated cells adherent in basal buffer condition (in the presence of 1 mM each of Ca^2+ and Mg^2+, NC) was considered minimum (0% binding).

For a further experiment, the target named is T3, integrin CD11c/CD18 (Homo sapiens, UniProt P20702).
T3 construct: expressed in transfected cells; host or cells: K562 (ATCC)
Nature of the experiment: HTS cell adhesion assay, K562 CD11c/CD18 cells on immobilized fibrinogen. The conditions noted are these: K562 CD11c/CD18 cells, adhesion to fibrinogen, dose-response. Here is the method:
K562 cells stably expressing CD11c/CD18 (K562 CD11c/CD18) were generated similarly. Mutant CD11bE320A has been described previously. K562 cells stably transfected with mutant integrin CD11bE320A/CD18 (K562 E320A) were generated according to literature protocols. All cell lines were maintained in Iscove's Modified Dulbecco's Medium (IMDM) supplemented with 10% heat-inactivated fetal bovine serum, 50 IU/mL penicillin and streptomycin and 0.5 mg/mL G418.
as §1, §2, §3, §4
Cell-adhesion under positive and negative control conditions was used to define the activity scale; signal corresponding to the number of non-small molecule treated cells adherent in activating buffer condition (in the presence of Mn^2+ ions as agonist, PC) was considered maximum (100% binding) and the signal corresponding to the number of non-small molecule treated cells adherent in basal buffer condition (in the presence of 1 mM each of Ca^2+ and Mg^2+, NC) was considered minimum (0% binding). […]
The compounds were diluted in DMSO by the final concentration 10 μM, 5 μM, 2.5 μM, 1.25 μM and 0.625 μM and stocked as sealed in 384-well plates at −80° C.

Where [3] appears, read: Table 3, adhesion to fibrinogen.
Setting [4] is: Table 4, adhesion to fibrinogen.
[5] abbreviates: Table 4, adhesion to fibrinogen, dose-response.

Each structure is given as a SMILES string.

As usually defined, the EC50 is the midpoint of the concentration-response curve. Higher therefore signals a need for much substance. With `O=C(O)CCN1C(=O)/C(=C/c2ccc(-c3nc4ccccc4s3)o2)SC1=S` [Compound 2030972], the EC50 in experiment [1] (setting [3]) and in experiment [1] (setting [4]) was 6.69 µM in each case. For the same compound, the “EC50 CD11b/CD18” value in experiment [2] (Table 3, adhesion to fibrinogen, 5-point dose-response) is on record as “Very Low”; in experiment [2] (setting [5]), “N/A Very Low”. Further, the “EC50 CD11c/CD18” value is recorded as “Very Low” on integrin CD11c/CD18 (Table 3) and “N/A Very Low” on integrin CD11c/CD18 (Table 4).

With `O=C(Cn1c(=O)oc2cc(S(=O)(=O)N3CCCC3)ccc21)NC1CCCc2ccccc21` (centres unmarked) [Compound 5308150], the concentration giving a half-maximal response (EC50) in experiment [1] (setting [3]) and in experiment [1] (setting [4]) was 1.26 µM each time. In addition, the “EC50 CD11b/CD18” value in experiment [2] (setting [5]) is reported as “N/A Very Low”. Further, the “EC50 CD11c/CD18” value at integrin CD11c/CD18 (Table 3) is “Very Low”; at integrin CD11c/CD18 (Table 4), “N/A Very Low”.
